In patent publication US8372342B2, “Apparatus for monitoring thrombus formation and method of monitoring thrombus formation” (Fujimori Kogyo Co., Ltd., priority 2005, dated 2013):

Key:
blood coagulation [1] = test: Time taken for coagulation of blood in Eppendorf tubes (Reference Experiment 1); type: cell-based
Procedure: The blood immediately after blood sampling, the blood prepared by adding a volume of one tenth of 300 μg/ml of a maize-derived trypsin inhibitor to the first blood, and the blood prepared by adding a thrombin aptamer that recognizes exosite I to the second blood so as to be 5 μM in concentration were provided. Then, for these three kinds of the blood, the time taken for coagulation were measured in Eppendorf tubes (made of polypropylene). The sample was reversed up side down every one minute and the flowability thereof was confirmed.
Further, when 5 μM of a thrombin aptamer that recognizes exosite I and 5 μM of a thrombin aptamer that recognizes exosite II were used in combination, blood coagulation was not confirmed even after 3 hours even in the case of the blood free of the trypsin inhibitor.

[2] = system: plasma coagulation (APTT); test: APTT measurement on plasma (Reference Experiment 2); type: biochemical; settings: plasma added with 500-μM exosite I recognizing thrombin aptamer
Procedure: The measurement of APTT was carried out on […] of plasma with respect to each of sample A added with […] of physiological saline solution, sample B added with […] of 500-μM exosite I recognizing thrombin aptamer, and sample C added with 10 μl of a solution containing 500-μM exosite I recognizing thrombin aptamer and 1500-μM exosite I recognizing thrombin aptamer antisense DNA. The sample A was 44 seconds, the sample B was 2 minutes or more, and the sample C was 45 seconds.

[3] = system: thrombus formation in citrate-treated blood; test: Thrombus formation monitoring in a glass tube chamber with collagen-immersed silk as thrombus inducing material; type: cell-based; settings: 0.1 mg/ml added to solution A; flown for 15 minutes
Procedure: After flowing the solution A in the syringe 20 at 3 ml/min and the solution B in the syringe 21 at 0.3 ml/min for 15 minutes, the thrombus formation chamber 10 was detached and the inside thereof was then washed with a physiological saline solution.

blood coagulation [4] = test: Thromboelastogram waveform of coagulation (Reference Experiment 3); type: cell-based; settings: aptamers to exosite I and II; stored at room temperature for 15 minutes
Procedure: FIG. 11(A) is a result obtained by analyzing a thromboelastogram waveform of coagulation by adding 10 μM of each of aptamers for exosite I and exosite II to the blood, and after storing the blood at room temperature for 15 minutes, adding 40 μM of each of antisense DNAs of both aptamer. FIG. 11(B) illustrates the thromboelastogram waveform of the blood just after blood sampling.
FIG. 11(A) is an analysis of a waveform of coagulation with thromboelastogram by storing the blood added with […] of aptamers to exosite I and exosite II at room temperature for 15 minutes, and then by adding 40 μM of antisense DNAs of both aptamers. FIG. 11(B) is a thromboelastogram waveform of the blood just after blood sampling.

[5] = system: thrombus formation in whole blood; test: Microchip pressure measurement, collagen/tissue thromboplastin chamber, blood anticoagulated with trypsin inhibitor and thrombin aptamers, released with antisense DNAs (Example 17 system); type: cell-based
Excerpt: A microchip 300, where the substrate and the cover of the microchip shown in FIG. 9(B) and FIG. 9(C), respectively, made of the same materials as those of Example 7 were pressure-bonded, was used. The microchip 300 comprises a blood coagulation inhibitor inlet tube 322 and a discharge tube 313 which were connected to the substrate 100 as in the case with the discharge tube of Example 7. However, the grooves of the microchip 300 of FIG. 9 are all formed of 200 μm in depth. […] A solution was prepared such that 1 vial of the Sysmex Corporation PT reagent (tissue thromboplastin) was dissolved in 1 ml of purified water and then dialyzed in purified water, the dialyzed product in purified water was mixed with collagen type I (manufactured by Nitta Gelatin Inc.) at a ratio of 1:1. After that, the applied portion was dried at 4° C. in air and thrombus formation chamber 311 was covered, which was used as a thrombus inducing material 315. The blood was collected after the addition of an anticoagulation treatment agent such that the final concentrations of the respective components in the syringe were 25 μg/ml for maize-derived trypsin inhibitor, 10 μM for exosite I thrombin aptamer, 10 μM for exosite II thrombin aptarner (5′-[…]-3′: SEQ D NO. 3). Immediately before monitoring, the blood thus collected was added with antisense DNAs with respect to thrombin aptamers of exosite I and exosite II so that each of them would reach to a concentration of 40 μM. Then, a syringe (1 ml syringe, manufactured by Terumo Corporation) was filled with the blood and provided as the sample syringe 320 shown in FIG. 9. The My Flow (manufactured by Arbiotec Co., Ltd), which is a micro-feeding pump capable of monitoring the inner pressure of a liquid-feeding pump, was connected to a pressure inlet tube 317 shown in FIG. 9. Mineral oil was pressed into the microchip 300 from the top of the syringe 320 and the blood was pushed out into the microchip 300 at a flow rate of 50 μl/min, while the pressure exerted on the sample syringe 320 was monitored. […]

[6] = system: thrombus formation in citrate-treated blood; test: Thrombus formation monitoring in the FIG. 1 flow apparatus, collagen-coated constriction portion, citrate-treated blood released with CaCl2; type: cell-based; settings: 1 mg/ml added to solution A
Procedure: An apparatus for monitoring thrombus formation illustrated in FIG. 1 is used to fill a syringe 20 with 50 ml of a citrate-treated blood (solution A) in which 9 parts by volume of the blood immediately after the blood sample is mixed with 1 part by volume of 3.2% sodium citrate, and to fill a syringe 21 with 10 ml of 0.2M CaCl2 (solution B). The syringes 20 and 21 are connected to transparent nylon tubes (inlet tube 11 and drug tube 12) with an inner diameter of 3 mm. Both tubes are joined together at a T-shaped joint (cheese) and then connected to a polycarbonate thrombus formation chamber 10 of 3 mm in inner diameter and 1 cm in length through a single nylon tube (inlet tube 11) of 3 mm in inner diameter and 3 cm in length. The thrombus formation chamber 10 itself is constructed as a removable cassette. The joint portion between the cassette and the nylon tube (inlet tube 11) is made liquid-tight via an O-ring made of silicon rubber. A glass member is fixed on the inside of the cassette by an epoxy-based adhesive, thereby forming a constriction portion 14. The constriction portion 14 is designed so that the most narrowed site of the constriction portion 14 may have an inner diameter (the maximum gap between the constriction portion 14 and the inner wall) of 1.5 mm. In addition, the thrombus formation chamber 10 is connected liquid-tight with a tube as a discharge tube 13 having the same diameter and formed of the same material through an O-ring made of silicon rubber, and thus a thrombus monitoring apparatus 1 as illustrated in FIG. 1 is manufactured. Note that flange-type pressure gauges 40 and 41 are mounted on parts of the inlet tube 11 and the discharge tube 13 near the thrombus formation chamber 10 via joints (cheeses), respectively. […]
An apparatus for monitoring thrombus formation 1 is prepared and thrombus formation is then monitored in a manner similar to Example 1, except that the solution A of Example 1 is further added with an unfractionated heparin (prepared from pig mucous) at a concentration of 1 mg/ml.

[7] = system: thrombus formation in whole blood; test: Microchip pressure measurement, blood anticoagulated with citric acid and maize-derived trypsin inhibitor, released with calcium chloride (Example 20 system); type: cell-based; settings: 2 μg/ml
Procedure: The blood sampling was carried out with the addition of 3.2% citric acid so that the ratio of citric acid and the blood be 1:9. Further, the blood was added with a maize-derived trypsin inhibitor at a concentration of 25 μg/ml to carry out an anticoagulation reaction. Immediately after adding calcium chloride to the anticoagulated blood so that it should reach 15 mM with respect to the anticoagulated blood at the time of monitoring thrombus formation, the blood was added to a syringe (1-ml syringe, manufactured by Terumo Corporation), followed by inflowing the blood into the same microchip as that of Example 17 at a flow rate of 40 μl/min. Subsequently, a change in pressure was measured using the same system as that of Example 17. The pressure began to rise 15 minutes after starting the pressure measurement and it rose up to about 60 kPa.
The blood sampling was carried out with the addition of an anticoagulation treatment agent in manner similar to Example 20. Subsequently, the same procedure as that of Example 20 was carried out, except that ReoPro (LILLY Co., Ltd.) was added at a concentration of 2 μg/ml. The measurement of pressure was then performed. The pressure began to rise 20 minutes after starting the pressure measurement and it rose up to about 15 kPa after 25 minutes (FIG. 15).

Molecule: 5′-GGTTGGTGTGGTTGG-3′ (listed as DNA, chemistry not given here) [thrombin aptamer]
- coagulation time (blood coagulation [1]; 5 μM exosite I thrombin aptamer added to the blood already containing trypsin inhibitor): 62 min
- APTT [2]: ≥ 2 min

Molecule: CC1CNc2c(cccc2S(=O)(=O)N[C@@H](CCCNC(=N)N)C(=O)N2CC[C@@H](C)C[C@@H]2C(=O)O)C1 (stereo partly shown) [Argatroban]
- presence of thrombus in glass tube by visual observation after washing [3]: did not confirm the presence of thrombus

Molecule: thrombin aptamer that recognizes exosite I and thrombin aptamer that recognizes exosite II: combination of exosite I aptamer (SEQ ID NO. 1) and exosite II aptamer 5′-AGTCCGTGGTAGGGCAGGTTGGGGTGACT-3′ (SEQ ID NO. 3) (chain 1 GGTTGGTGTGGTTGG; listed as DNA, chemistry not given here)
- effect on blood storage / coagulation by thromboelastogram (blood coagulation [4]): allow the blood to be stored
- time without confirmed blood coagulation (blood coagulation [1]; 5 μM of each aptamer in combination, blood free of the trypsin inhibitor): > 3 h

Molecule: unfractionated heparin
- pressure rose up to ([5]; 1 unit/ml, flow rate 50 μl/min): about 10 kPa
- time after starting the measurement at which pressure began to rise ([5]; 1 unit/ml, flow rate 50 μl/min): 13 min
- thrombus in the thrombus formation chamber by visual observation after washing [6]: thrombus cannot be found
- decrease in blood flow discharged from the discharge tube ([6]; solutions flown for 10 minutes): no decrease in blood flow
- pressure difference between inlet tube and discharge tube pressure gauges ([6]; solutions flown for 10 minutes): no pressure difference

B1: ReoPro: ReoPro (LILLY Co., Ltd.) (antibody, chains of the INN, looked up, V domains shown)
VH: EVQLQQSGTVLARPGASVKMSCEASGYTFTNYWMHWVKQRPGQGLEWIGAIYPGNSDTSYIQKFKGKAKLTAVTSTTSVYMELSSLTNEDSAVYYCTLYDGYYVFAYWGQGTLVTVSA
VL: EIVLTQSPVTLSVTPGDSVSLSCRASRDISNNLHWFQQTSHESPRLLIKYASQSMSGIPSRFSGSGSGTDFTLSINSVETEDFGMYFCQQTNSWPYTFGGGTKLEIK
modifications: Fab
- pressure rose up to ([7]; after 25 minutes): about 15 kPa
- time after starting the pressure measurement at which pressure began to rise ([7]; flow rate 40 μl/min): 20 min
- increase in pressure ([5]; 50 μg/ml, measurement for 18 minutes): could not be confirmed
